Where a name gives a salt, the structure may show the parent alone.
Assays:
Type in all cases: biochemical
LOXL2 [1] = target: T1, LOXL2 (Homo sapiens (Human), UniProt Q9Y4K0); experiment: LOXL2 inhibition, Amplex Red oxidation assay; conditions: 30 min preincubation at 37 °C, putrescine substrate
Description: (§1) Lysyl oxidase (LOX) is an extracellular copper dependent enzyme which oxidizes peptidyl lysine and hydroxylysine residues in collagen and lysine residues in elastin to produce peptidyl alpha-aminoadipic-delta-semialdehydes. […] There are five LOX family members; these are LOX, LOXL1, LOXL2, LOXL3 and LOXL4. LOX and LOXL family members can be acquired as recombinant active proteins from commercial sources, or extracted from animal tissues like bovine aorta, tendons, pig skin; or prepared from cell cultures. The inhibitory effects of the compounds of the present invention were tested against the given LOX-LOXL preparation using a method based on the detection of hydrogen peroxide with an Amplex Red oxidation assay (Zhou et al. A stable nonfluorescent derivative of resorufin for the fluorometric determination of trace hydrogen peroxide: applications in detecting the activity of phagocyte NADPH oxidase and other oxidases. Anal. Biochem. 1997; 253, 162-168). The assay was developed using either 384 or 96 well format. Briefly, in a standard black, clear bottom 384 well plate assay 25 μL of a dilution of any of the isoenzymes and orthologues in 1.2 M urea, 50 mM sodium borate buffer (pH 8.2) were added into each well in the presence of 1 μM mofegiline and 0.5 mM pargyline (to inhibit SSAO and MAO-B and MAO-A, respectively; not necessary if the enzyme is from a recombinant or purified form). Test compounds were dissolved in DMSO and tested in a Concentration Response Curve (CRC) with 11 data points, typically in the micromolar or nanomolar range after incubation with the enzyme for 30 min at 37° C. Twenty five μL of a reaction mixture containing twice the KM concentration of putrescine (Sigma Aldrich, e.g. 20 mM for LOX, or 10 mM for LOXL2 and LOXL3), 120 μM Amplex Red (Sigma Aldrich) and 1.5 U/mL horseradish peroxidase (Sigma Aldrich) prepared in 1.2 M urea, 50 mM sodium borate buffer (pH 8.2) were then added to the corresponding wells. The above volumes were doubled in the case of 96 wells plate. The fluorescence (RFU) was read every 2.5 min for 30 min at […] 37° C., excitation 565 nm and emission 590 (Optima; BMG labtech). The slope of the kinetics for each well was calculated using MARS data analysis software (BMG labtech) and this value was used to deduce the IC50 value (Dotmatics).

Recombinant human MAO-B = Recombinant human MAO-B (Homo sapiens (Human), UniProt P27338); experiment: Inhibition of human recombinant MAO-B; conditions: benzylamine 100 μM
Recombinant human MAO-B, sequence (P27338 whole entry): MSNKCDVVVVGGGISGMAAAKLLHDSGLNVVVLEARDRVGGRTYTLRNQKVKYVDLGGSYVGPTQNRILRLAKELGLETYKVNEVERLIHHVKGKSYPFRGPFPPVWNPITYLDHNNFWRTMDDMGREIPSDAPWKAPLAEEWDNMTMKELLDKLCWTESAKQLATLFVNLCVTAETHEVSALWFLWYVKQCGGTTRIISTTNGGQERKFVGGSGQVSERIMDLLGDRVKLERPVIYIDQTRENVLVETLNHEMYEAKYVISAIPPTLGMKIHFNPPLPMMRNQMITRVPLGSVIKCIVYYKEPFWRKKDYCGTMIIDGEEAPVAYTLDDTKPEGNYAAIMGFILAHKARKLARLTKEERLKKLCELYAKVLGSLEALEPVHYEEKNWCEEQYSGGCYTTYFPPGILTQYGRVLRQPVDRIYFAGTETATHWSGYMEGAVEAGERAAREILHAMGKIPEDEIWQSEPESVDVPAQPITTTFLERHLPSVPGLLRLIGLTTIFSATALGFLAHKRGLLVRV
Procedure: The specificity of the compounds of this invention was tested by determining their ability to inhibit MAO-B activities in vitro. Recombinant human MAO-B (0.06 mg/mL; Sigma Aldrich) was used as source of MAO-B enzyme activities. The assay was performed in a similar way as for human SSAO/VAP-1 (Example 28) except, the substrate benzylamine was used at 100 μM.

Bovine LOX = Bovine LOX (Bos taurus (Bovine), UniProt P33072); experiment: LOX inhibition, Amplex Red oxidation assay; conditions: 30 min preincubation at 37 °C, putrescine substrate
Bovine LOX, sequence (P33072 170-418): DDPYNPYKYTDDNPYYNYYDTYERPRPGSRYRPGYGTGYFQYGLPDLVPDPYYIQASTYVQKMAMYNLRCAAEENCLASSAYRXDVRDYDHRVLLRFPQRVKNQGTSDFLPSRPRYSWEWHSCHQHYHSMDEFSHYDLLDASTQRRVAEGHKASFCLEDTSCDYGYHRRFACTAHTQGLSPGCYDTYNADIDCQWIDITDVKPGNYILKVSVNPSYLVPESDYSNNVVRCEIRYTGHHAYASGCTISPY
Description: as §1, with “Test compounds were dissolved in DMSO and tested in a Concentration Response Curve (CRC) with 11 data points, typically in the micromolar or nanomolar range after incubation with the enzyme for 30 min at 37° C.” left out

LOXL1 = LOXL1 (Homo sapiens (Human), UniProt Q08397); experiment: Jump dilution experiment, sustained inhibition of LOXL1; conditions: jump dilution after 40 min at 37 °C with 10× or 30× IC50; vs non-inhibited controls;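 further: 30× IC50 used only where needed so inhibitor exceeds enzyme concentration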
LOXL1, sequence (Q08397 96-574, species assumed): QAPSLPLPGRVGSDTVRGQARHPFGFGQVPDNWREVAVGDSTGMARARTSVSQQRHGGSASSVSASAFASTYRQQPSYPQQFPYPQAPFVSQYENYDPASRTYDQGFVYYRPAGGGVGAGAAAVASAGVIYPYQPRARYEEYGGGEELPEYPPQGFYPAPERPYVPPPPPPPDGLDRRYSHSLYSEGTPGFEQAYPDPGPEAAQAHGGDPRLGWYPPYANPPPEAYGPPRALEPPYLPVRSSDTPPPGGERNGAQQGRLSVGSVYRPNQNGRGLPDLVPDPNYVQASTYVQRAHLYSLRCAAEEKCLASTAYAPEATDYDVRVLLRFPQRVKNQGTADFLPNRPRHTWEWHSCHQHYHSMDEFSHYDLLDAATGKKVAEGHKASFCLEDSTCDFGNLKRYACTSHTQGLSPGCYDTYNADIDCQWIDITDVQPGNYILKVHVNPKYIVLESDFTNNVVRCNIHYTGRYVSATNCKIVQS
Procedure: (§2) Jump Dilution experiment: The assay was developed using a 96 well format and the starting enzyme concentration was set 100 times higher than for the inhibition studies. […] After the incubation, the mixture was diluted 50× in assay buffer, followed by a further 2× dilution in Amplex Red-horseradish peroxidase-putrescine reaction mix (same as per the inhibition studies) prior to the fluorescent measurement. Results were expressed in % recovery of the signal after a specified time by comparison with non-inhibited controls.

LOXL2 [2] = target: T1, LOXL2; experiment: Jump dilution experiment, sustained inhibition of LOXL2; conditions: jump dilution after 40 min at 37 °C with 10× or 30× IC50; vs non-inhibited controls;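 further: 30× IC50 used only where needed so inhibitor exceeds enzyme concentration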
Procedure: as §2

[3] = target: Human recombinant SSAO/VAP-1 (Homo sapiens (Human), UniProt Q16853); experiment: Inhibition of human recombinant SSAO/VAP-1; conditions: 30 min preincubation at 37 °C, benzylamine 600 μM; read-out: SSAO/VAP-1 Activity IC50
Human recombinant SSAO/VAP-1, sequence (Q16853 34-763): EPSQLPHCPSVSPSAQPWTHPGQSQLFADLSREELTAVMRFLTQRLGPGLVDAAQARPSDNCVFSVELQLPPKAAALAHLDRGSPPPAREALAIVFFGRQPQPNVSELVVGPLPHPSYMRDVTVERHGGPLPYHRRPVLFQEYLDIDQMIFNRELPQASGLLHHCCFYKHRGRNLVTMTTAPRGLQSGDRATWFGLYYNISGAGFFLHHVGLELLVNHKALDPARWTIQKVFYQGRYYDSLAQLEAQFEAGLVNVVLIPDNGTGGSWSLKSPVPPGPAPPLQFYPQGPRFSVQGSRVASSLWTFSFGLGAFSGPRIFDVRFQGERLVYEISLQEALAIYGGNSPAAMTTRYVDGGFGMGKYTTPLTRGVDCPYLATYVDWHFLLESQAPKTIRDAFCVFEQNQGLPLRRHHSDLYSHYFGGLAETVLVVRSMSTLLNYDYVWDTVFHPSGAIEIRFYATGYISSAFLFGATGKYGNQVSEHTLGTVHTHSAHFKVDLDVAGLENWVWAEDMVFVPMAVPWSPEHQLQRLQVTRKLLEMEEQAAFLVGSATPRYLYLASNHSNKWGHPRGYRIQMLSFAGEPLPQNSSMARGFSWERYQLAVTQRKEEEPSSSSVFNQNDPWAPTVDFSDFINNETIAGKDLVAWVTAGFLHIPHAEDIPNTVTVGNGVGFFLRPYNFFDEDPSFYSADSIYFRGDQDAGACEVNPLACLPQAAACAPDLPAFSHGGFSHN
Procedure: Human recombinant SSAO/VAP-1 amine oxidase activity was determined using the coupled colorimetric method as described for monoamine oxidase, copper-containing amine oxidases and related enzymes (Holt A. and Palcic M., A peroxidase-coupled continuous absorbance plate-reader assay for flavin monoamine oxidases, copper-containing amine oxidases and related enzymes. Nat Protoc 2006; 1: 2498-2505). Briefly, a cloned cDNA template corresponding to residues 34-763 of human SSAO/VAP-1, and incorporating a mouse Ig kappa (κ) signal sequence, N-terminal flag epitope tag and tobacco etch virus (TEV) cleavage site, was assembled in a mammalian expression vector (pLO-CMV) by Geneart AG. This vector containing human SSAO/VAP-1 residues was transfected into CHO-Kl glycosylation mutant cell line, Lec 8. A clone stably expressing human SSAO/VAP-1 was isolated and cultured in large scale. Active human SSAO/VAP-1 was purified and recovered using immunoaffinity chromatography. This was used as the source for SSAO/VAP-1 activity. A high-throughput colorimetric assay was developed using either 96 or 384 well format. Briefly, in a standard 96 well plate assay 50 μL of purified human SSAO/VAP-1 (0.25 μg/mL) in 0.1 M sodium phosphate buffer (pH 7.4) was added into each well. Test compounds were dissolved in DMSO and tested in a Concentration Response Curve (CRC) with 4-11 data points, typically in the micromolar or nanomolar range after incubation with human SSAO/VAP-1 for 30 min at 37° C. After 30 min incubation, 50 μL of the reaction mixture containing 600 μM benzylamine (Sigma Aldrich), 120 μM Amplex Red (Sigma Aldrich) and 1.5 U/mL horseradish peroxidase (Sigma Aldrich) prepared in 0.1 M sodium phosphate buffer (pH 7.4) were added to the corresponding well. The fluorescence unit (RFU) was read every 2.5 min for 30 min at 37° C. excitation 565 nm and emission 590 (Optima; BMG labtech). The slope of the kinetics for each well was calculated using MARS data analysis software (BMG labtech) and this value was used to deduce the IC50 value (Dotmatics).

T1 sequence (Q9Y4K0 26-774): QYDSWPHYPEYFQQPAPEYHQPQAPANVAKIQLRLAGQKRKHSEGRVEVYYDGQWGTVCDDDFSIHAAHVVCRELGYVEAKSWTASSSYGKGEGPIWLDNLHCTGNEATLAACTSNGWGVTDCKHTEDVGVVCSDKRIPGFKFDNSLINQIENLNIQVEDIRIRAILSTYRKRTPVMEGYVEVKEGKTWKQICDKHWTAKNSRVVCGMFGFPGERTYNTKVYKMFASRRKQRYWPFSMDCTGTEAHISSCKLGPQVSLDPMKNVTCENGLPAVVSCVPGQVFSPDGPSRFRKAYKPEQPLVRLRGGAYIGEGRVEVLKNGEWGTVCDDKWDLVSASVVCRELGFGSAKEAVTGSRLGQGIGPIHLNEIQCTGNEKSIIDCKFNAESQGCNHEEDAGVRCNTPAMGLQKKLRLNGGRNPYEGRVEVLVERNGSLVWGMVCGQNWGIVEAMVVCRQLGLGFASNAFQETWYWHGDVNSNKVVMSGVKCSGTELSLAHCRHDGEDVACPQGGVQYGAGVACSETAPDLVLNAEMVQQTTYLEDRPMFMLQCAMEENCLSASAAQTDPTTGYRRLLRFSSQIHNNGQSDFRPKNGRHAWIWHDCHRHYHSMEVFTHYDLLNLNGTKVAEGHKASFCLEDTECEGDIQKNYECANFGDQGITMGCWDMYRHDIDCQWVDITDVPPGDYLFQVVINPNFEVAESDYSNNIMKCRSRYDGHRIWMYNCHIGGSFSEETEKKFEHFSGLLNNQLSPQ

Row | Compound | IC50 (LOXL2 [1]) [µM] | IC50 (Recombinant human MAO-B) [µM] | IC50 (Bovine LOX) [µM] | LOXL1 - Recovery of activity. (%) (LOXL1) | LOXL2 - Recovery of activity. (%) (LOXL2 [2]) | IC50 [3] [µM]
1 | NC/C=C(\F)CS(=O)(=O)c1ccc(C(=O)NC23CC4CC(CC(C4)C2)C3)cc1 [Compound 4, N-(adamantan-1-yl)-4-(((Z)-4-amino-2-fluorobut-2-en-1-yl)sulfonyl)benzamide hydrochloride] | < 10 | < 10 | < 10 | 16.7 | 21.2 | > 30
2 | CN(C)S(=O)(=O)c1ccc(COc2ccccc2S(=O)(=O)C/C(F)=C/CN)cc1 [Compound 5, (Z)-4-((2-((4-amino-2-fluorobut-2-en-1-yl)sulfonyl)phenoxy)methyl)-N,N-dimethylbenzenesulfonamide hydrochloride] | < 1 | > 30 | < 1 | 3.6 | 10.0 | > 30
3 | CN(C)S(=O)(=O)c1ccc(Oc2ccccc2S(=O)(=O)C/C(F)=C/CN)cc1 [Compound 6, (Z)-4-(2-((4-amino-2-fluorobut-2-en-1-yl)sulfonyl)phenoxy)-N,N-dimethylbenzenesulfonamide hydrochloride] | < 1 | > 30 | < 10 | 2.5 | 10.4 | > 30
4 | CN(C)S(=O)(=O)c1ccc(COc2cccc(S(=O)(=O)C/C(F)=C/CN)c2)cc1 [Compound 9, (Z)-4-((3-((4-amino-2-fluorobut-2-en-1-yl)sulfonyl)phenoxy)methyl)-N,N-dimethylbenzenesulfonamide hydrochloride] | < 1 | < 10 | < 1 | 4.4 | 15.1 | > 30
5 | CN(C)S(=O)(=O)c1ccc(COc2ccc(S(=O)(=O)C/C(F)=C/CN)cc2)cc1 [Compound 10, (Z)-4-((4-((4-amino-2-fluorobut-2-en-1-yl)sulfonyl)phenoxy)methyl)-N,N-dimethylbenzenesulfonamide hydrochloride] | < 10 | > 30 | < 10 |  | 15.2 | > 30
6 | NC/C=C(\F)CS(=O)(=O)c1ccccc1C(=O)NC12CC3CC(CC(C3)C1)C2 [Compound 12, N-(adamantan-1-yl)-2-(((Z)-4-amino-2-fluorobut-2-en-1-yl)sulfonyl)benzamide hydrochloride] | < 1 | > 30 | < 10 | 2.6 | 9.3 | > 30
7 | NC/C=C(\F)CS(=O)(=O)c1cccc(C(=O)NC23CC4CC(CC(C4)C2)C3)c1 [Compound 13, N-(adamantan-1-yl)-3-(((Z)-4-amino-2-fluorobut-2-en-1-yl)sulfonyl)benzamide hydrochloride] | < 10 | < 10 | < 10 | 3.5 | 8.9 | > 30
8 | CN(C)S(=O)(=O)c1ccc(Oc2cccc(S(=O)(=O)C/C(F)=C/CN)c2)cc1 [Compound 16, (Z)-4-(3-(4-amino-2-fluorobut-2-enylsulfonyl)phenoxy)-N,N-dimethylbenzenesulfonamide hydrochloride] | < 1 |  | < 1 |  | 14.4 | 
9 | CN(C)S(=O)(=O)c1cccc(Oc2cccc(S(=O)(=O)C/C(F)=C/CN)c2)c1 [Compound 17, (Z)-3-(3-(4-amino-2-fluorobut-2-enylsulfonyl)phenoxy)-N,N-dimethylbenzenesulfonamide hydrochloride] | < 1 |  | < 10 |  | 5.3 | 
10 | CN(C)S(=O)(=O)c1cccc(Oc2ccccc2S(=O)(=O)C/C(F)=C/CN)c1 [Compound 18, (Z)-3-(2-(4-amino-2-fluorobut-2-enylsulfonyl)phenoxy)-N,N-dimethylbenzenesulfonamide hydrochloride] | < 1 |  | < 1 |  | 6.9 | 
